target: T1, recombinant rat mGluR5 (Rattus norvegicus, UniProt P31424); assay: Functional calcium flux assay (FLIPR), antagonist evaluation against glutamate-evoked [Ca2+]i increase; format: cell-based; settings: Table 1; HEK293 cells stably expressing recombinant rat mGluR5; 15 min incubation of test compound, then submaximal glutamate; read-out: IC50 value (FLIPR assay)
T1 construct: expressed in transfected cells
How it was run: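 HEK293 cells stably expressing rat mGluR5 were loaded with Fluo-8, preincubated 15 min with compound, then stimulated with submaximal glutamate; [Ca2+]i read by FLIPR. Inhibition relative to glutamate alone was fitted to a 4-parameter logistic to derive IC50.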

T1 sequence (P31424 21-1203): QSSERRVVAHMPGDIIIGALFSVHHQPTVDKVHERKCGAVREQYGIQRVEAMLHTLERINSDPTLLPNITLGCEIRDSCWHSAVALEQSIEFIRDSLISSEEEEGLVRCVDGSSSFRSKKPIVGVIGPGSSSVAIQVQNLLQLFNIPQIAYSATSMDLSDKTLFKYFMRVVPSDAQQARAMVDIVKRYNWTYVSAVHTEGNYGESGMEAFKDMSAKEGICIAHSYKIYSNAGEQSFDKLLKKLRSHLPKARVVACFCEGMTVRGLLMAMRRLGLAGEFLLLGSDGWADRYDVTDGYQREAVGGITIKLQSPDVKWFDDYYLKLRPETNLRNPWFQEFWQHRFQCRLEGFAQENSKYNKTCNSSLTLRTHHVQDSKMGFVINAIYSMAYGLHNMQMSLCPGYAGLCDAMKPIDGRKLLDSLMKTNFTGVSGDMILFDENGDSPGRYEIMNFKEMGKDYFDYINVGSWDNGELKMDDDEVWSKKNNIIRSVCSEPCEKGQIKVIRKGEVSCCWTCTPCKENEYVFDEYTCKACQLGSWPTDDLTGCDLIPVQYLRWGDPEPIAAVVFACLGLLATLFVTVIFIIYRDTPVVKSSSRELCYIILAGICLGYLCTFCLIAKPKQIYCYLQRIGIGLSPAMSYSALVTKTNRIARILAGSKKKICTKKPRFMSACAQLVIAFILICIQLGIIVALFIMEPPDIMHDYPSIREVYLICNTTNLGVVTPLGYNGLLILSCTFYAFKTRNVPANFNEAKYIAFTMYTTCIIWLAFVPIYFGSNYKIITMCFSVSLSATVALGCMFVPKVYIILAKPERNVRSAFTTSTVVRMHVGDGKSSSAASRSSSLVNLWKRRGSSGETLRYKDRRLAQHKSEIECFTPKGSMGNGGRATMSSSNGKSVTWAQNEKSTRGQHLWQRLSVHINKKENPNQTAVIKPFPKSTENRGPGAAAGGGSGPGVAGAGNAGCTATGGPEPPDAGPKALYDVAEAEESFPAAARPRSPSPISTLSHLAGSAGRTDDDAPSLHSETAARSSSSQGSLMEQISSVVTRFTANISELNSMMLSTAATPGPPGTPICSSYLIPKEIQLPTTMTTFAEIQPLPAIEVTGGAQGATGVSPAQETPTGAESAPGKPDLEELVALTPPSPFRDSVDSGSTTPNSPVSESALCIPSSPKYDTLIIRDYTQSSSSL

Row | Structure (SMILES) | IC50 [nM]
1 | Cc1nn(-c2ccc(F)cc2)c(C)c1C#Cc1ccncn1 [Compound 3, 4-((1-(4-fluorophenyl)-3,5-dimethyl-1H-pyrazol-4-yl)ethynyl) pyrimidine] | ≤ 500
2 | Fc1cncc(-n2cc(C#Cc3ncccn3)c(Cl)n2)c1 [Compound 45, 2-((3-chloro-1-(5-fluoropyridin-3-yl)-1H-pyrazol-4-yl)ethynyl) pyrimidine] | 1000 to 5000
3 | Fc1ccc(-n2ncc(C#Cc3ccccn3)c2Cl)cn1 [Compound 18] | ≤ 500
4 | Cc1nn(-c2ccc(F)nc2)c(C)c1C#Cc1ccccn1 [Compound 24] | ≤ 500
5 | N#Cc1cc(F)cc(-n2cc(C#Cc3ccncc3)cn2)c1 [Compound 79, 3-fluoro-5-(4-(pyridin-4-ylethynyl)-1H-pyrazol-1-yl)benzonitrile] | ≤ 500
6 | Fc1ccc(-n2cc(C#Cc3ncccn3)c(Cl)n2)cc1 [Compound 43, 2-((3-chloro-1-(4-fluorophenyl)-1H-pyrazol-4-yl)ethynyl)pyrimidine] | ≤ 500
7 | Cc1nn(-c2ccc(F)cn2)c(C)c1C#Cc1ccccn1 [Compound 25, 2-(3,5-dimethyl-4-(pyridin-2-ylethynyl)-H-pyrazol-1-yl)-5-fluoropyridine] | ≤ 500
8 | COCCOc1ccc(-n2cc(C#Cc3ccccn3)cn2)cn1 [Compound 28, 2-(2-methoxyethoxy)-5-(4-(pyridin-2-ylethynyl)-1H-pyrazol-1-yl) pyridine] | ≤ 500
9 | N#Cc1cc(F)cc(-n2cc(C#Cc3ccccn3)cn2)c1 [Compound 75, 3-fluoro-5-(4-(pyridin-2-ylethynyl)-1H-pyrazol-1-yl)benzonitrile] | ≤ 500
10 | Cc1c(C#Cc2ccccn2)c(N(C)C)nn1-c1ccc(OC(F)(F)F)cc1 [Compound 16] | 1000 to 5000
11 | Cc1nn(-c2ccc(F)cc2)c(C)c1C#Cc1ncccn1 [Compound 2, 2-((1-(4-fluorophenyl)-3,5-dimethyl-1H-pyrazol-4-yl)ethynyl) pyrimidine] | ≤ 500
12 | Cc1nn(-c2cc(F)cc(C#N)c2)c(C)c1C#Cc1ccccn1 [Compound 5] | ≤ 500
13 | COCCOc1nn(-c2cc(F)cc(C#N)c2)c(C)c1C#Cc1ccccn1 [Compound 29, 3-fluoro-5-(3-(2-methoxyethoxy)-5-methyl-4-(pyridin-2-ylethynyl)-1H-pyrazol-1-yl)benzonitrile] | ≤ 500
14 | COCCOc1nn(-c2cc(F)cc(C#N)c2)c(C)c1C#Cc1ncccn1 [Compound 30, 3-fluoro-5-(3-(2-methoxyethoxy)-5-methyl-4-(pyrimidin-2-ylethynyl)-1H-pyrazol-1-yl)benzonitrile] | 1000 to 5000
15 | Fc1ccc(-n2cc(C#Cc3ccccn3)cn2)nc1 [Compound 27, 5-fluoro-2-(4-(pyridin-2-ylethynyl)-1H-pyrazol-1-yl)pyridine] | ≤ 500
16 | N#Cc1cc(F)cc(-n2cc(C#Cc3ncccn3)c(C3CC3)n2)c1 [Compound 55, 3-(3-cyclopropyl-4-(pyrimidin-2-ylethynyl)-1H-pyrazol-1-yl)-5-fluorobenzonitrile] | ≤ 500

Other lines, results leading:

Row | IC50 [nM] | Structure (SMILES)
17 | 500 to 1000 | FC(F)(F)Oc1ccc(-n2cc(C#Cc3ccncc3)cn2)cc1 [Compound 94, 4-((1-(4-(trifluoromethoxy)phenyl)-1H-pyrazol-4-yl)ethynyl)pyridine]
18 | 1000 to 5000 | N#Cc1cc(F)cc(-n2cc(C#Cc3cnccn3)cn2)c1 [Compound 80, 3-fluoro-5-(4-(pyrazin-2-ylethynyl)-1H-pyrazol-1-yl)benzonitrile]
19 | ≤ 500 | Fc1ccc(-n2cc(C#Cc3ccccc3)cn2)cc1 [Compound 81, 1-(4-fluorophenyl)-4-(phenylethynyl)-1H-pyrazole]
20 | ≤ 500 | Fc1ccc(-n2cc(C#Cc3ccncc3)cn2)cc1 [Compound 87]

same assay, conditions: Table 2; HEK293 cells stably expressing recombinant rat mGluR5; 15 min incubation of test compound, then submaximal glutamate; read-out: IC50 (FLIPR assay)

Row | IC50 [nM] | Structure (SMILES)
21 | ≤ 500 | Cc1cn(-c2cc(F)cc(C#N)c2)nc1C#Cc1ccccn1 [Compound 59, 3-fluoro-5-(4-methyl-3-(pyridin-2-ylethynyl)-1H-pyrazol-1-yl) benzonitrile]
22 | ≤ 500 | N#Cc1cc(F)cc(-n2ccc(C#Cc3ccccn3)n2)c1 [Compound 105, 3-fluoro-5-(3-(pyridin-2-ylethynyl)-1H-pyrazol-1-yl)benzonitrile]
23 | ≤ 500 | Cc1cc(C#Cc2cccc(Cl)c2)nn1-c1cc(F)cc(C#N)c1 [Compound 99, 3-(3-((3-chlorophenyl)ethynyl)-5-methyl-1H-pyrazol-1-yl)-5-fluorobenzonitrile]
24 | 1000 to 5000 | Cc1cc(C#Cc2cnccn2)nn1-c1ccc(OC(F)(F)F)cc1 [Compound 134, 2-((5-methyl-1-(4-(trifluoromethoxy)phenyl)-H-pyrazol-3-yl)ethynyl)pyrazine]
25 | ≤ 500 | Cc1cc(C#Cc2ccccn2)nn1-c1cc(F)cc(C#N)c1 [Compound 97, 3-fluoro-5-(5-methyl-3-(pyridin-2-ylethynyl)-1H-pyrazol-1-yl) benzonitrile]
26 | ≤ 500 | N#Cc1cc(F)cc(-n2ccc(C#Cc3cccc(Cl)c3)n2)c1 [Compound 107, 3-(3-((3-chlorophenyl)ethynyl)-1H-pyrazol-1-yl)-5-fluorobenzonitrile]
27 | ≤ 500 | Cc1cc(C#Cc2ncccn2)nn1-c1cc(F)cc(C#N)c1 [Compound 101, 3-fluoro-5-(5-methyl-3-(pyrimidin-2-ylethynyl)-H-pyrazol-1-yl) Benzonitrile]
28 | ≤ 500 | Cc1cc(C#Cc2ccccn2)nn1-c1ccc(OC(F)(F)F)cc1 [Compound 136, 2-((5-methyl-1-(4-(trifluoromethoxy)phenyl)-1H-pyrazol-3-yl)ethynyl)pyridine]
29 | 1000 to 5000 | Cc1cc(C#Cc2ncccn2)nn1-c1ccc(F)cc1 [Compound 128, 2-((1-(4-fluorophenyl)-5-methyl-1H-pyrazol-3-yl)ethynyl)]

Reference: patent publication US10941132B2, “Pyrazole derivatives” (HUA MEDICINE (SHANGHAI) Ltd., priority 2016, dated 2021)
